# Reference: US20250312314A1, “METHOD AND COMPOSITION FOR IMPROVING OR MAINTAINING SKIN HEALTH OF MAMMALS” (NANJING NUTRABUILDING BIO-TECH CO., LTD., priority 2022, published 2025)
# Assays:
# Corynebacterium spp. = test: Microbial colonization of reconstructed layered human epidermis, live count; type: cell-based; settings: 24±2 h
# Protocol: (§1) Primary adult human skin fibroblasts were embedded in fibrin matrix to produce dermal equivalent. The dermal equivalent was cultured to allow fibroblasts to reconstruct matrix. Primary neonatal human keratinocytes were applied on the surface of dermal equivalent and cultured in liquid for 48 hours. Culture was carried out on the air-liquid interface (ALI) until a layered epidermis was formed.
# (§2) Staphylococcus epidermidis, Corynebacterium spp., Cutibacterium spp., Propionibacterium acnes and Malassezia were cultured in proper culture medium and incubation conditions (37±2° C., 5±1% (v/v) CO2, ≥95% RH). Inoculation buffer (GS25) was used to prepare inoculum containing about 1.1×10^6 cfu mL^−1 microbial flora of the above bacteria. 10 μL of the mixture was used for skin (layered epidermis) colonization, and each unit was colonized with about 10^4 cfu·cm^−2 of each bacterium. After that, the layered epidermis was incubated at 37±2° C., 5±1% (v/v) CO2, ≥95% RH for 3±1 hours.
# (§3) α-Glucan Oligosaccharide (α-GO for short) is a famous prebiotic, which can protect skin health by maintaining the balance of microbial population and strengthening the microbial barrier of skin, so the experiment took it as a control. Control (α-GO, 1 μM) and EGT (0 μM, 0.1 μM, 1 μM, 10 μM, 100 μM, 1000 μM) were applied on the layered epidermis respectively, and then incubated for 24±2 hours at 37±2° C., 5±1% (v/v) CO2 and ≥95% RH. Then, the above five kinds of microorganisms were counted respectively to evaluate the inhibitory effect of α-GO and EGT on microbial growth: 8 mm live tissue slices were taken from layered epidermis, and the number of live bacteria (cfu·cm^−2) was evaluated by incubation on appropriate selective solid medium. The choice of solid medium is based on the characteristics of microorganisms themselves.
# Cutibacterium spp. = test: as above; type: cell-based; settings: 24±2 h
# Protocol: as §1, §2, §3
# Malassezia = test: as above; type: cell-based; settings: 24±2 h
# Protocol: as §1, §2, §3
# Propionibacterium acnes = test: as above; type: cell-based; settings: 24±2 h
# Protocol: as §1, §2, §3
# [1] = tested on: Staphylococcus epidermidis; test: as above; type: cell-based; settings: 24±2 h
# Protocol: as §1, §2, §3
# Streptococcus = test: Relative abundance of Streptococcus in skin of subjects after applying EGT base cream (16S rRNA); type: in vivo, human; settings: once a day for 4 weeks
# Protocol: (§4) Thirty healthy women aged 20-59 were randomly divided into three groups. The first group (0% EGT, n=10) was applied with pure base cream as the control group, the second group (5% EGT, n=10) was applied with base cream mixed with 5% ergothioneine, and the third group (10% EGT, n=10) was applied with base cream mixed with 10% ergothioneine. The applying was performed once a day for 4 weeks. Skin microorganisms were collected on the 0 th and 28 th days respectively, and the elasticity, moisture and desquamation of the skin of the subjects were measured on the 28 th day. Sterile water was used to wash Participants' faces and then applied on solid trypsin soy agar (TSA) medium. Individual colonies were collected and cultured in liquid trypsin soy broth (TSB) medium at 37° C. for 72 hours.
# Each sample was centrifuged and the precipitate was collected, and the microbial DNA in the precipitate was extracted with a specific kit. The purity and quantity of DNA were measured by spectrophotometer. The 16S rRNA gene of bacteria was amplified with the following primers: forward, 5′-[…]-3′ (SEQ ID NO: 1); reverse, 5′-[…]-3′ (SEQ ID NO: 2). PCR was carried out in a 25 μL reactor, which contained 2 μL genomic DNA (10 ng/μL), 0.5 μL primers (10 μM), 12.5 μL 2×KAPA HiFi HotStart Ready Mix and 9.5 μL distilled water. […]
# [2] = Elasticity, moisture and desquamation of skin of subjects after applying EGT base cream; type: in vivo, human; settings: once a day for 4 weeks, day 28
# Protocol: as §4
# [3] = EGT 0.1-1000 μM, effect more significant with increasing concentration
structure (smiles),measurement,setting,value
"C[N+](C)(C)[C@@H](Cc1c[nH]c(=S)[nH]1)C(=O)[O-] [EGT, Ergothioneine]",colonization of Corynebacterium spp. in the layered epidermis (live bacteria count),Corynebacterium spp.; [3],obviously inhibited
same,inhibitory effect on Corynebacterium spp. compared with α-GO,Corynebacterium spp.; same concentration (1 μM),better inhibitory effect
same,colonization of Cutibacterium spp. in the layered epidermis (live bacteria count),Cutibacterium spp.; [3],obviously inhibited
same,inhibitory effect on Cutibacterium spp. compared with α-GO,Cutibacterium spp.; same concentration (1 μM),better inhibitory effect
same,colonization of Malassezia in the layered epidermis (live count),Malassezia; [3],obviously inhibited
same,inhibitory effect on Malassezia compared with α-GO,Malassezia; same concentration (1 μM),better inhibitory effect
same,colonization of Propionibacterium acnes in the layered epidermis (live bacteria count),Propionibacterium acnes; [3],obviously inhibited
same,inhibitory effect on Propionibacterium acnes compared with α-GO,Propionibacterium acnes; same concentration (1 μM),better inhibitory effect
same,colonization of Staphylococcus epidermidis in the layered epidermis (live bacteria count),[1]; [3],obviously inhibited
same,inhibitory effect on Staphylococcus epidermidis compared with α-GO,[1]; same concentration (1 μM),better inhibitory effect
same,"effect on relative abundance of Streptococcus, 10% EGT group compared with 5% EGT",Streptococcus; 10% EGT base cream,more obvious
same,relative abundance (RA) of Streptococcus in skin vs pure base cream group,"Streptococcus; EGT base cream (5% and 10%), healthy women",more abundant
same,increase of skin elasticity compared with 0% EGT group,[2]; 10% EGT base cream,about 20%
same,increase of skin moisture compared with 0% EGT group,[2]; 10% EGT base cream,about 45%
same,reduction of desquamation compared with 0% EGT group,[2]; 10% EGT base cream,about 30%
same,skin desquamation,[2]; EGT base cream (5% and 10%),avoid the problem of skin desquamation
same,skin elasticity,[2]; EGT base cream (5% and 10%),significantly increase
same,skin moisture,[2]; EGT base cream (5% and 10%),significantly increase
